Measured values reported in Sander's compilation of Henry's law constants (doi:10.1016/j.atmosenv.2006.04.009).

assay: Henry solubility constant Hcp at 298.15 K (mol/(m3 Pa)); details: reference: Cetin et al. (2006)

Point of comparison: `ClC1C(Cl)C(Cl)C(Cl)C(Cl)C1Cl` (stereo not drawn) [α-1,2,3,4,5,6-hexachlorocyclohexane], “Henry solubility constant Hcp” value 3. Against it:
- Clc1ccc(C(c2ccc(Cl)cc2)C(Cl)(Cl)Cl)cc1 [1,1,1-trichloro-2,2-bis-(4-chlorophenyl)-ethane] — lower, 0.9
- ClC1=C(Cl)[C@]2(Cl)[C@@H]3[C@@H](Cl)[C@@H](Cl)C[C@@H]3[C@@]1(Cl)C2(Cl)Cl [cis-chlordane] — lower, 0.15
- ClC1=C(Cl)C2(Cl)C3C(Cl)C(Cl)C(Cl)C3C1(Cl)C2(Cl)Cl (stereo not drawn) [trans-nonachlor] — lower, 0.088
- ClC1=C(Cl)[C@]2(Cl)[C@H]3[C@H](Cl)[C@@H](Cl)C[C@H]3[C@@]1(Cl)C2(Cl)Cl [trans-chlordane] — lower, 0.063
- ClC(Cl)=C(c1ccc(Cl)cc1)c1ccc(Cl)cc1 [1,1-dichloro-2,2-bis-(4-chlorophenyl)-ethene] — lower, 0.16
- ClC1=C(Cl)C2(Cl)[C@H]3C(Cl)C(Cl)C(Cl)[C@H]3C1(Cl)C2(Cl)Cl (stereo partly drawn) [cis-nonachlor] — lower, 1.4
- ClC1=C(Cl)[C@]2(Cl)[C@@H]3[C@H]4C[C@H]([C@@H]5O[C@H]45)[C@@H]3[C@@]1(Cl)C2(Cl)Cl [endrin] — lower, 1.8
- CCOP(=S)(OCC)Oc1nc(Cl)c(Cl)cc1Cl [chlorpyrifos] — lower, 0.22
- ClC1C(Cl)C(Cl)C(Cl)C(Cl)C1Cl (stereo not given) [γ-1,2,3,4,5,6-hexachlorocyclohexane] — higher, 3.9
- ClC1=C(Cl)[C@]2(Cl)[C@@H]3[C@@H]4C[C@@H]([C@H]5O[C@@H]45)[C@@H]3[C@@]1(Cl)C2(Cl)Cl [dieldrin] — lower, 0.92
- ClC1=C(Cl)C2(Cl)C3C4OC4C(Cl)C3C1(Cl)C2(Cl)Cl (stereo not given) [heptachlorepoxide] — lower, 0.5
- ClC1=C(Cl)C2(Cl)C3C(Cl)C=CC3C1(Cl)C2(Cl)Cl (stereo not given) [heptachlor] — lower, 0.019
- ClC1=C(Cl)[C@]2(Cl)[C@H]3[C@H]([C@@H]4C=C[C@H]3C4)[C@@]1(Cl)C2(Cl)Cl [aldrin] — lower, 0.022
- Clc1ccc(C(c2ccc(Cl)cc2)C(Cl)Cl)cc1 [1,1-dichloro-2,2-bis-(4-chlorophenyl)-ethane] — lower, 0.91
